Source: the Kinase Knowledgebase extract (Sharma et al. 2016)

Molecular target: ROCK2 (human) (UniProt O75116)
Experiment: Inhibition of ROCK2 Kinase Activity

Chain of ROCK2 (human) (O75116 whole entry, looked up): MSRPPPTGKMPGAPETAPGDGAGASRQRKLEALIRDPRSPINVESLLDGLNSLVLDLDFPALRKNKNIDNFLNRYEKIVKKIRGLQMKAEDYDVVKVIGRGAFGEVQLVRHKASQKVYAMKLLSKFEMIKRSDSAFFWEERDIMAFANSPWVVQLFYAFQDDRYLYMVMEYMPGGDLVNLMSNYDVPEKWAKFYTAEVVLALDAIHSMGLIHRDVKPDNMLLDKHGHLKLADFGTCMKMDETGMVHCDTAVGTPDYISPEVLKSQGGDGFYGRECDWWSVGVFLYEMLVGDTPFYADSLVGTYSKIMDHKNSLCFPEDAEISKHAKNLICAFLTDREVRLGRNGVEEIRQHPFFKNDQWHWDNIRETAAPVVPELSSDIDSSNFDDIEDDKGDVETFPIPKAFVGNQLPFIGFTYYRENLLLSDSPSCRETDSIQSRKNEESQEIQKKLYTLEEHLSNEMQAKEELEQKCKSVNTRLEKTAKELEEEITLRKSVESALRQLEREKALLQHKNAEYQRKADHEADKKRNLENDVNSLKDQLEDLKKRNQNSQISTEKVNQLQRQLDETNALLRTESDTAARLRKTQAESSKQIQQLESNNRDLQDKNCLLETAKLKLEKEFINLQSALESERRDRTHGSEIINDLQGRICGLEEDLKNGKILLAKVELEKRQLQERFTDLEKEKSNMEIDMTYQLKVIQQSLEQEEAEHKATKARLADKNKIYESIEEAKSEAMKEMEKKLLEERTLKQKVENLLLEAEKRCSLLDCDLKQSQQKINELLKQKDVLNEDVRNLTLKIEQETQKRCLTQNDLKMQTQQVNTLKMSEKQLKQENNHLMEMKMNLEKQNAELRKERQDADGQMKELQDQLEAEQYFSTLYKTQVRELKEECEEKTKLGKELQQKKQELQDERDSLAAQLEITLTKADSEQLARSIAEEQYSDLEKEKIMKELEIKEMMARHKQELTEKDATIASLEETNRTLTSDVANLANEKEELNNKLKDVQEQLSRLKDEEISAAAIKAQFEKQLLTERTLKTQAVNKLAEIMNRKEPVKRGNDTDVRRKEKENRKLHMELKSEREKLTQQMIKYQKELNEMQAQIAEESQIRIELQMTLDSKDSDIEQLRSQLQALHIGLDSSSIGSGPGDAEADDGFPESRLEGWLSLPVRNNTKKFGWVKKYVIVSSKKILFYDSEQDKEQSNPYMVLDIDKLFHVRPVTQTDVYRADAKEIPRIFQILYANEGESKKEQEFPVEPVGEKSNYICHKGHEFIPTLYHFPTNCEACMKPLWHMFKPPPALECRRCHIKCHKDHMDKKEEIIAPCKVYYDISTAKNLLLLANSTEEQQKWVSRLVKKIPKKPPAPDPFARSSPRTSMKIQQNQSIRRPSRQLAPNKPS

SMILES | IC50 [µM]
O=C(NCc1nc(-c2c[nH]c3ncccc23)n[nH]1)c1cc([N+](=O)[O-])ccc1Cl | > 5
O=C(NCc1nc(-c2ccncc2)n[nH]1)c1ccncc1Cl | > 5
O=C(NCc1nc(-c2ccncc2)n[nH]1)c1cc(Cl)ccc1[N+](=O)[O-] | > 5
CCC(C)C(NC(=O)OC(C)(C)C)C(=O)NCc1nc(-c2ccncc2)n[nH]1 (stereo not drawn) | > 5
COc1cccc(C(=O)NCc2nc(-c3ccncc3)n[nH]2)c1 | > 5
O=C(NCc1nc(-c2ccncc2)n[nH]1)c1cc(F)ccc1[N+](=O)[O-] | > 5
COc1cc(Cl)ccc1C(=O)NCc1nc(-c2c[nH]c3ncccc23)n[nH]1 | > 5
CC(C)C(C(=O)NCc1nc(-c2c[nH]c3ncccc23)n[nH]1)N(C)C(=O)OC(C)(C)C (stereo not drawn) | > 5
CC(C)c1ccc(C(=O)NCc2nc(-c3ccncc3)n[nH]2)cc1 | > 5
O=C(NCc1nc(-c2ccncc2)n[nH]1)c1ccc(-c2ccc(O)cc2)cc1 | > 5
CC(C)Oc1ccc(C(=O)NCc2nc(-c3ccncc3)n[nH]2)cc1 | > 5
Cc1cccc(C(=O)NCc2nc(-c3ccncc3)n[nH]2)c1 | > 5
CC(NC(=O)OC(C)(C)C)C(=O)NCc1nc(-c2c[nH]c3ncccc23)n[nH]1 (stereo not drawn) | > 5
O=C(NCc1nc(-c2ccncc2)n[nH]1)c1ccc(C(F)(F)F)cc1[N+](=O)[O-] | > 5
CCC(=O)C(=O)NCc1nc(-c2c[nH]c3ncccc23)n[nH]1 | > 5
O=C(NCc1nc(-c2ccncc2)n[nH]1)C(F)(F)F | > 5
O=C(NCc1nc(-c2c[nH]c3ncccc23)n[nH]1)C1CCCO1 (stereo not drawn) | > 5
O=C(NCc1nc(-c2c[nH]c3ncccc23)n[nH]1)c1cc2ccccc2s1 | > 5
COc1cc(OC)c(C(=O)NCc2nc(-c3c[nH]c4ncccc34)n[nH]2)c(OC)c1 | > 5
COc1ccccc1CC(=O)NCc1nc(-c2c[nH]c3ncccc23)n[nH]1 | > 5
O=C(C=Cc1ccccc1C(F)(F)F)NCc1nc(-c2c[nH]c3ncccc23)n[nH]1 | > 5
O=C(NCc1nc(-c2c[nH]c3ncccc23)n[nH]1)c1ccc(Br)cc1 | > 5
CCc1ccc(C(=O)NCc2nc(-c3c[nH]c4ncccc34)n[nH]2)cc1 | > 5
O=C(NCc1nc(-c2c[nH]c3ncccc23)n[nH]1)c1ccc(OCc2ccccc2)cc1 | > 5
Cc1ccccc1C(=O)NCc1nc(-c2ccncc2)n[nH]1 | > 5
O=C(Nc1cccc2c(-c3ccncc3)n[nH]c12)c1cccs1 | > 5
CC(=O)c1ccccc1C(=O)NCc1nc(-c2c[nH]c3ncccc23)n[nH]1 | > 5
CC(=O)Oc1ccccc1C(=O)NCc1nc(-c2c[nH]c3ncccc23)n[nH]1 | > 5

Next, values leading:

IC50 [µM] | SMILES
> 5 | O=C(NCc1nc(-c2ccncc2)n[nH]1)c1c(Cl)cc(Cl)cc1Cl
> 5 | O=C(NCc1nc(-c2c[nH]c3ncccc23)n[nH]1)c1ccc(F)cc1Cl
> 5 | CS(=O)(=O)Nc1ccc(C(=O)NCc2nc(-c3ccncc3)n[nH]2)cc1
≤ 5 | O=C(NCc1nc(-c2ccncc2)n[nH]1)c1nccs1
> 5 | O=C(NCc1nc(-c2c[nH]c3ncccc23)n[nH]1)C1=CCCC1
≤ 5 | CC(NC(=O)c1cccs1)c1nc(-c2ccncc2)n[nH]1 (stereo not drawn)
> 5 | CC(C)(C)OC(=O)N1CCCCC1C(=O)NCc1nc(-c2c[nH]c3ncccc23)n[nH]1 (stereo not drawn)
> 5 | Cc1ccc(F)cc1C(=O)NCc1nc(-c2ccncc2)n[nH]1
> 5 | CC(=O)Oc1cccc(C(=O)NCc2nc(-c3c[nH]c4ncccc34)n[nH]2)c1
> 5 | O=C(NCc1nc(-c2ccncc2)n[nH]1)c1ccncc1
> 5 | Cc1cccc([N+](=O)[O-])c1C(=O)NCc1nc(-c2ccncc2)n[nH]1
> 5 | CC(C)(C)c1ccc(C(=O)NCc2nc(-c3ccncc3)n[nH]2)cc1
≤ 5 | CC(=O)Oc1ccc(C(=O)NCc2nc(-c3ccncc3)n[nH]2)c(O)c1
≤ 5 | O=C(NCc1nc(-c2ccncc2)n[nH]1)c1ccc(CO)cc1
≤ 5 | O=C(NCc1nc(-c2ccncc2)n[nH]1)c1n[nH]c2ccccc12
